Test: xn = mol fraction of the nth substance listed
Details: 100 kPa

CCCCCO + CCCC[n+]1ccn(C)c1.O=[N+]([O-])[O-]
x2 = 0
Details | viscosity [mPa·s]
293.15 K | 4.03
303.15 K | 3.04
313.15 K | 2.33
323.15 K | 1.81

CCCC[n+]1ccn(C)c1.O=[N+]([O-])[O-] + CCCCCO
viscosity [mPa·s]
Details | 293.15 K | 303.15 K | 313.15 K | 323.15 K
x1 = 0.0824 | 5.32 | 3.84 | 2.94 | –
x1 = 0.1538 | 6.83 | 4.88 | 3.59 | 2.69
x1 = 0.2318 | 8.87 | 6.36 | 4.68 | 3.38
x1 = 0.3425 | 13.1 | 9.46 | 6.76 | 4.63
x1 = 0.4363 | – | 13.2 | 9.14 | 6.19
x1 = 0.5668 | – | 21 | 14 | 9.37
x1 = 0.6481 | 40.3 | 28.1 | – | 12.31
x1 = 0.7481 | – | 41 | 27 | 17.3
x1 = 0.8416 | 94.9 | 59.8 | – | 24.3
x1 = 0.9415 | 160 | 94 | – | –
x1 = 1 | 224 | 125 | 75.1 | 45.2

From a compilation of properties of binary mixtures (doi:10.1016/j.jct.2020.106232)
